# In publication PMC7933930, “Development of a small molecule that corrects misfolding and increases secretion of Z α1‐antitrypsin” (EMBO Molecular Medicine, 2021):
# Key:
# OPRM1 = OPRM1 (Homo sapiens, UniProt P35372); test: Off‐target panel: OPRM1 (DRX); assay type: cell-based
# Protocol: (§1) GSK716 selectivity and PK properties were profiled in order to investigate the suitability of GSK716 for progression into in vivo studies and the potential for taking it forward as a clinical candidate for testing in humans. Since GSK716 results in loss of inhibitory activity of α1‐antitrypsin, the effect of the compound was assessed on other closely related serpins. […] Furthermore, there were no off‐target effects in a panel of assays considered predictive of known safety liabilities that precluded further development of GSK716 (Table EV1).
# GABA-A = test: Off‐target panel: GABA-A (Barracuda); assay type: cell-based
# Protocol: as §1
# Serotonin 5HT2C = target: T1, Serotonin 5HT2C (Homo sapiens, UniProt P28335); test: Off‐target panel: Serotonin 5HT2C; assay type: cell-based
# T1 sequence (P28335 33-458): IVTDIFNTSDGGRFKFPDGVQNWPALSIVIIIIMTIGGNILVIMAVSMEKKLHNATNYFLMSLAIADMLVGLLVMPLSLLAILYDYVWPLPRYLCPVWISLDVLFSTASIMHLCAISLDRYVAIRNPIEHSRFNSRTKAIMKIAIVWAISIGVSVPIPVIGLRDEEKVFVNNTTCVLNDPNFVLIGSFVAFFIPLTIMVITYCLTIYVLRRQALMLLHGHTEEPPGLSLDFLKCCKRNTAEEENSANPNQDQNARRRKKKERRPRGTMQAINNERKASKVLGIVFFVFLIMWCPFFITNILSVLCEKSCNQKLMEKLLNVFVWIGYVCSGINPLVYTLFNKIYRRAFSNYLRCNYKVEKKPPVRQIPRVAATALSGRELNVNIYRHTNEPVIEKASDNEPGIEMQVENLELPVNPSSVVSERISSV
# Protocol: as §1
# Adrenergic β2 = Adrenergic β2 (Homo sapiens, UniProt P07550); test: Off‐target panel: Adrenergic β2; assay type: cell-based; details: read-out: Mean (PXC50)
# Adrenergic β2, sequence (P07550 whole entry): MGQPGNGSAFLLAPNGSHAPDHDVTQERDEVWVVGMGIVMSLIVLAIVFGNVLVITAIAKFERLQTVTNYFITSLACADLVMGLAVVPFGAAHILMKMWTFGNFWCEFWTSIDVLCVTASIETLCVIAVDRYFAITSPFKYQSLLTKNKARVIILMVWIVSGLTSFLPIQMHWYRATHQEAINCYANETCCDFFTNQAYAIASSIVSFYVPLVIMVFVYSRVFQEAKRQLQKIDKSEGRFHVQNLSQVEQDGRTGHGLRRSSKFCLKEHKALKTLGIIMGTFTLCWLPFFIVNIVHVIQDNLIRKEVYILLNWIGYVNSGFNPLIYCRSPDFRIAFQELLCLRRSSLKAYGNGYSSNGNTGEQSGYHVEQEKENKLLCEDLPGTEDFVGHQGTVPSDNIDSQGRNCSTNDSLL
# Protocol: as §1
# NK1 (TACR1) = NK1 (TACR1) (Homo sapiens, UniProt P25103); test: Off‐target panel: NK1 (TACR1); assay type: cell-based; details: Antagonist, read-out: Mean (PXC50)
# NK1 (TACR1), sequence (P25103 whole entry, species assumed): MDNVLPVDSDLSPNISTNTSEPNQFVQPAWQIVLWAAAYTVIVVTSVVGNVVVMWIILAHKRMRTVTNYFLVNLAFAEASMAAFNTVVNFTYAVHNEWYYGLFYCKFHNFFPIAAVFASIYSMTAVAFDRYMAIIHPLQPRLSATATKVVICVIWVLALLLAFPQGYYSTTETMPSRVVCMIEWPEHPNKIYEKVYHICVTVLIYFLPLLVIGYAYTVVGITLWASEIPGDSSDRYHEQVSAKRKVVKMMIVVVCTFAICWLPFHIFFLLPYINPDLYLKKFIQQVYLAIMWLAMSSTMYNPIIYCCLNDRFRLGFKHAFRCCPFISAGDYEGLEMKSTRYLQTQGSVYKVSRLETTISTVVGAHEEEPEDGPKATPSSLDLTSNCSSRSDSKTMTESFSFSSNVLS
# Protocol: as §1
# Serotonin 5HT2B = Serotonin 5HT2B (Homo sapiens, UniProt P41595); test: Off‐target panel: Serotonin 5HT2B (DRX); assay type: cell-based
# Serotonin 5HT2B, sequence (P41595 whole entry): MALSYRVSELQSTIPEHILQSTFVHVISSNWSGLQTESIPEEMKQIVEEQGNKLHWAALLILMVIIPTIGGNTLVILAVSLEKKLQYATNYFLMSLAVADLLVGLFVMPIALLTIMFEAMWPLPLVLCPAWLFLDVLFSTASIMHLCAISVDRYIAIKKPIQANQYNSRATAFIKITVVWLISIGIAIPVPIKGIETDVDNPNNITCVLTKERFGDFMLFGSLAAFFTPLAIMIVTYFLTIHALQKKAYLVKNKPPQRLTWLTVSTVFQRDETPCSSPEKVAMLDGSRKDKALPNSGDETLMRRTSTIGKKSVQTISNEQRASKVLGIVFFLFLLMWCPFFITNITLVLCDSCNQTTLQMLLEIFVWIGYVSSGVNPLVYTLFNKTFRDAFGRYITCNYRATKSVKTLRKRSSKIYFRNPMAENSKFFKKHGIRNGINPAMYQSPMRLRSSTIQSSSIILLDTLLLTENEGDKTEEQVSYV
# Protocol: as §1
# ChromLogD = assay type: physicochemical; details: pH 7.4; pH7.4
# Protocol: ChromLogD was measured as previously described (Valkó et al, 1997).
# [1] = Oral pharmacokinetics in male CD‐1 mouse; assay type: in vivo
# Protocol: (§2) Male CD‐1 mice, Han Wistar rats or beagle dogs were administered GSK716 as a suspension in 1% w/v aqueous methylcellulose via oral gavage at doses of 1 mg/kg (dog) or 10, 30 and 100 mg/kg (mouse, rat). Blood samples were taken into EDTA, diluted and mixed with acetonitrile containing internal standard (alprazolam) and centrifuged to precipitate proteins. Aliquots of the resultant supernatant were analysed by LC‐MS/MS, and concentrations of GSK716 in blood were determined. Non‐compartmental pharmacokinetic analysis (NCA) was carried out using Phoenix WinNonLin 6.3 (Certara L.P.). Free drug was measured in Z α1‐antitrypsin transgenic mice by dialysing tissue samples in rapid equilibrium dialysis cassettes.
# Muscarinic M2 = target: T2, Muscarinic M2 (Homo sapiens, UniProt P08172); test: Off‐target panel: Muscarinic M2 (DRX); assay type: cell-based
# T2 sequence (P08172 1-466): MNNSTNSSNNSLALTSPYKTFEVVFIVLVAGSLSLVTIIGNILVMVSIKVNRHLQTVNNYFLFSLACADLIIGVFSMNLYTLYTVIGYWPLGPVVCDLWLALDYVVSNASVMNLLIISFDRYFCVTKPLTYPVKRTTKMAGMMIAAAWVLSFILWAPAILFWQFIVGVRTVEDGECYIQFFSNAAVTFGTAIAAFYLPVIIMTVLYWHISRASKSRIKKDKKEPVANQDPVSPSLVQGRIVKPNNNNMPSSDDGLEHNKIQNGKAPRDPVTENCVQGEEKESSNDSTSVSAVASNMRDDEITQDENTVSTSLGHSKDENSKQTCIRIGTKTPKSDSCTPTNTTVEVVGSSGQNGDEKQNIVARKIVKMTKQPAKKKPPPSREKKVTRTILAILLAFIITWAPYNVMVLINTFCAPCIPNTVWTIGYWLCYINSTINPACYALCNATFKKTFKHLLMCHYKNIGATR
# Protocol: as §1
# PXR (human) = PXR (human) (Homo sapiens, UniProt O75469); test: Off‐target panel: PXR (human); assay type: cell-based; details: Activator, read-out: Mean (PXC50) (converted)
# PXR (human), sequence (O75469 whole entry): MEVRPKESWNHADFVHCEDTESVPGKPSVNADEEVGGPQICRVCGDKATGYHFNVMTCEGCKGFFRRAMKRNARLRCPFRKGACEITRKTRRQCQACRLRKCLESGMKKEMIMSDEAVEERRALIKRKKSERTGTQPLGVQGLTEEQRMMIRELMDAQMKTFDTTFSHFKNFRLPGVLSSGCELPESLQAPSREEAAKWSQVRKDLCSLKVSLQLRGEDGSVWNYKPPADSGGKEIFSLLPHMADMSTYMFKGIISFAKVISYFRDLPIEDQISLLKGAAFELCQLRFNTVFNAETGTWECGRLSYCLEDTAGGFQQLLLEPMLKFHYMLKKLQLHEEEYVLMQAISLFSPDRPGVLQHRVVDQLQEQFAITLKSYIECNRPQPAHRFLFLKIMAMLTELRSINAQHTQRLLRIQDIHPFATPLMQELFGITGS
# Protocol: as §1
# [2] = Oral pharmacokinetics in dog; assay type: in vivo; details: beagle, whole blood, ≤ 3 mg/kg, read-out: F (oral bioavailability)
# Protocol: as §2, with “Male CD‐1 mice, Han Wistar rats or beagle dogs were administered GSK716 as a suspension in 1% w/v aqueous methylcellulose via oral gavage at doses of 1 mg/kg (dog) or 10, 30 and 100 mg/kg (mouse, rat).” left out
# OPRM1, sequence (P35372 whole entry, species assumed): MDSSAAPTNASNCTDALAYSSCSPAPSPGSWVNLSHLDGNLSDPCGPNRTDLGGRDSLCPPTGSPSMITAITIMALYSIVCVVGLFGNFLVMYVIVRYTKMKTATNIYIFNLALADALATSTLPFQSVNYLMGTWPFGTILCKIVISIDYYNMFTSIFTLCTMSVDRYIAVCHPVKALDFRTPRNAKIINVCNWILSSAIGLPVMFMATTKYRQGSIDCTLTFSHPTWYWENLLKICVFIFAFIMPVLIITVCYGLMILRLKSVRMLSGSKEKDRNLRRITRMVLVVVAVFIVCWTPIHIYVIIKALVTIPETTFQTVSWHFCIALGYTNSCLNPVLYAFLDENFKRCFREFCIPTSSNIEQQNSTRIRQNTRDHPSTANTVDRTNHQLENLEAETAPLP
smiles,measurement,setting,value
CCC[C@@H](NC(=O)c1cccc2c1CC(=O)N2)[C@@H](O)c1cccc(F)c1C [GSK716],EC50,OPRM1,10 µM
same,Mean (PXC50),GABA-A; Agonist,<4
same,Mean (PXC50),GABA-A; Antagonist,<4
same,Mean (PXC50),GABA-A; Pos Mod,<4
same,EC50,Serotonin 5HT2C,> 25.1 µM
same,IC50,Serotonin 5HT2C,> 25.1 µM
same,EC50,Adrenergic β2; Agonist,> 100 µM
same,IC50,Adrenergic β2; Antagonist,> 100 µM
same,IC50,NK1 (TACR1),> 25.1 µM
same,EC50,Serotonin 5HT2B,39.8 µM
same,chromatographic logD,ChromLogD,3.8
same,DNAUCinf in blood,[1]; single PO 10 mg/kg,202 ± 101
same,DNAUCinf in blood,[1]; single PO 30 mg/kg,294 ± 47
same,DNAUCinf in blood,[1]; single PO 100 mg/kg,403 ± 246
same,EC50,Muscarinic M2,5.01 µM
same,IC50,Muscarinic M2,> 50.1 µM
same,EC50,PXR (human),20 µM
same,bioavailability,[2],71%
